Like-named read-outs stand apart in the source and are kept apart here.
Columns and labels:
[1] = test system: GA-10-Clone-4; assay: CellTiter-Glo proliferation and viability assay; type: cell-based; details: Homo sapiens
[2] = test system: A375 V600E xenograft; assay: A375 xenograft tumor model, efficacy; type: in vivo, rat; details: nude rats, oral twice a day 5, 10, 15, and 20 mg/kg for 21 days
Procedure: Briefly, 10×10^6 cells (A375) or 5×10^6 cells (HCT-116) in a 1:1 medium and matrigel mix (0.2 mL total volume) are implanted by subcutaneous injection in the hind leg of nude female rats (NIH model No. NIHRNU-M from Taconic). A total of 8 rats in each group are used for the efficacy study, and a total of 3-4 rats in each group are used for a pharmacodynamic study. The Eli Lilly and Company Animal Care and Use Committee approved all the experimental protocols. […] Tumor growth and body weight are monitored over time to evaluate activity and signs of toxicity. Bidimensional measurements of tumors are performed twice a week and tumor volumes are calculated based on mid-axis length and mid-axis width. Tumor volume data are transformed to a log scale to equalize variance across time and treatment groups. The log volume data are analyzed with a two-way repeated measures analysis of variance by time and treatment using the MIXED® procedures in SAS® software (version 8.2). The correlation model for the repeated measures is spatial power. Treated groups are compared to the control group at each time point. The MIXED® procedure is also used separately for each treatment group to calculate adjusted means and standard errors at each time point. […]

[3] = test system: phospho-ERK in WM-266-4 V600E cells; assay: SureFire phospho-ERK AlphaScreen cellular assay; type: cell-based; details: Homo sapiens, 1 hour treatment
Procedure: (§1) A375 V600E, WM-266-4 V600E, HCT-116 K-Ras mutant B-Raf wild type are from ATCC. The cellular activities are assessed by an ELISA assay commercially available from TGR Biosciences to measure the phospho-ERK levels of each cell type.
(§2) The cells in each well are then lysed with 50 μl lysis buffer from TGR Biosciences. The phospho-ERK activities are determined with SureFire phospho-ERK AlphaScreen assay kit from TGR Biosciences per manufacturer's instruction.

[4] = test system: phospho-ERK in HCT-116 (K-Ras mutant B-Raf wild type) cells; assay: SureFire phospho-ERK AlphaScreen cellular assay; type: cell-based; details: Homo sapiens, 1 hour treatment
Procedure: as §1, §2

[5] = test system: phospho-ERK in A375 V600E cells; assay: SureFire phospho-ERK AlphaScreen cellular assay; type: cell-based; details: Homo sapiens, A-375, 1 hour treatment
Procedure: as §1, §2

[6] = test system: phospho-ERK in A375 V600E-PLX4032 resistant cells (A375-res); assay: SureFire phospho-ERK AlphaScreen cellular assay; type: cell-based; details: Homo sapiens, A-375, 1 hour treatment
Procedure: as §1, §2

[7] = test system: hematologic cancer cell lines with N-Ras mutations B-Raf wild type; assay: CellTiter-Glo proliferation and viability assay, N-Ras mutant hematologic panel; type: cell-based; details: Homo sapiens; 7 of the 9 hematologic cancer cell lines with N-Ras mutations B-Raf wild type
Procedure: Additional N-RAS mutant B-Raf wild type hematologic cancer cell lines were tested for sensitivity to Example 1. N-Ras activating mutations are common in hematologic cancers occurring at a frequency of 10-30%. Two B-Raf V600E mutant melanoma cell lines (A-375 and SK-Mel-28), nine N-Ras mutant hematologic cell lines (HL-60, THP-1, TALL-1, C8166, H9, IM-9, GA-10 clone 4, P31-FUJ, MOLT-4) and seven N-Ras wild-type cell lines (LOUCY, HEL, U266, EB2, P30-OHK, NOMO-1, CCRF-CEM) were tested, and the IC50 data reported.

[8] = Bioavailability; details: in vivo
[9] = test system: SNU-449; assay: CellTiter-Glo proliferation and viability assay; type: cell-based; details: Homo sapiens
[10] = test system: NUGC-3; assay: CellTiter-Glo proliferation and viability assay; type: cell-based; details: Homo sapiens
[11] = test system: THP-1; assay: CellTiter-Glo proliferation and viability assay; type: cell-based; details: Homo sapiens
[12] = test system: MOLT-4; assay: CellTiter-Glo proliferation and viability assay; type: cell-based; details: Homo sapiens
[13] = test system: HT-29; assay: CellTiter-Glo proliferation and viability assay; type: cell-based; details: Homo sapiens
[14] = test system: SK-HEP-1; assay: CellTiter-Glo proliferation and viability assay; type: cell-based; details: Homo sapiens, SK-HEP1, read-out: Abs IC50
[15] = test system: U-118-MG; assay: CellTiter-Glo proliferation and viability assay; type: cell-based; details: Homo sapiens
[16] = test system: BxPC-3; assay: CellTiter-Glo proliferation and viability assay; type: cell-based; details: Homo sapiens
[17] = test system: Sk-MeI-2 cells; assay: CellTiter-Blue SK-MeI-2 cell proliferation assay; type: cell-based; details: Homo sapiens; SK-Mel-2, CellTiter-Blue; read-out: Cell Proliferation Inhibition IC50
Procedure: Sk-MeI-2 cells (catalog #HTB-68) are obtained from the American Type Culture Collection (ATCC, Manassas, Va.). Briefly, cells are grown in MEM supplemented with 10% characterized fetal bovine serum (Invitrogen, Carlsbad, Calif.), 1 mM sodium pyruvate, 0.1 mM non-essential amino acids, and 1% Penicillin/Streptomycin/L-Glutamine at 37 degrees Celsius, 5% CO2, and 95% humidity. Cells are allowed to expand until reaching 70-95% confluency at which point they are subcultured or harvested for assay use. A serial dilution of test compound is dispensed into a 384-well black clear bottom plate in triplicate. One thousand two-hundred fifty cells are added per well in 50 μL complete growth medium in the 384-well plate. Plates are incubated for 67 hours at 37 degrees Celsius, 5% CO2, and 95% humidity. At the end of the incubation period, 10 μL of a 440 μM solution of resazurin (Sigma, St. Louis, Mo.) in PBS is added to each well of the plate and plates are incubated for an additional 5 hours at 37 degrees Celsius, 5% CO2, and 95% humidity. Plates are read on a Synergy2 reader (Biotek, Winooski, Vt.) using an excitation of 540 nm and an emission of 600 nm. Data is analyzed using Prism software (Graphpad, San Diego, Calif.) to calculate IC50 values.
The A375, HT-29, and Colo-205 cells (ATCC) harbor a V600E mutation.

[18] = test system: DU-145; assay: CellTiter-Glo proliferation and viability assay; type: cell-based; details: Homo sapiens
[19] = test system: PC-3; assay: CellTiter-Glo proliferation and viability assay; type: cell-based; details: Homo sapiens

IC50 [3]: 4.9 nM
IC50 [4]: 133 nM
IC50 [5]: 3 nM
IC50 [6]: 9.7 nM
IC50 [7]: < 1000 nM
bioavailability [8]: low
IC50 ([9]; read-out: Abs IC50): 1.87 nM
IC50 ([9]; read-out: Rel IC50): 2.01 nM
IC50 ([11]; read-out: Abs IC50): 0.08 nM
IC50 ([11]; read-out: Rel IC50): 0.03 nM
IC50 ([12]; read-out: Abs IC50): > 20 nM
IC50 ([12]; read-out: Rel IC50): 1.21 nM
IC50 ([13]; HT-29, read-out: Abs IC50): > 20 nM
IC50 ([13]; HT-29, read-out: Rel IC50): 0.06 nM
IC50 ([13]; HT-29, B-Raf V600E, colon, CellTiter-Glo, read-out: IC50): 7.3 nM
IC50 [14]: 1.96 nM
IC50 ([16]; read-out: Abs IC50): 0.39 nM
IC50 ([16]; read-out: Rel IC50): 0.23 nM
IC50 [17]: 158 nM
IC50 ([18]; read-out: Abs IC50): 5.18 nM
IC50 ([18]; read-out: Rel IC50): 0.66 nM
IC50 ([19]; read-out: Abs IC50): > 20 nM
IC50 ([19]; read-out: Rel IC50): > 20 nM
SMILES: CNc1ncc2cc(-c3cc(NC(=O)NCCC(C)(C)C)c(F)cc3C)c(C)nc2n1 [Example 1, 1-(3,3-Dimethylbutyl)-3-(2-fluoro-4-methyl-5-(7-methyl-2-(methylamino)pyrido[2,3-d]pyrimidin-6-yl)phenyl)urea]
IC50 ([1]; read-out: Abs IC50): 0.2 nM
IC50 ([1]; read-out: Rel IC50): 0.25 nM
animal body weight [2]: no animal body weight loss
tumor growth ([2]; all dose groups): tumor growth inhibition and tumor growth regression
IC50 ([10]; read-out: Abs IC50): 0.68 nM
IC50 ([10]; read-out: Rel IC50): 0.21 nM
IC50 ([15]; read-out: Abs IC50): 5.21 nM
IC50 ([15]; read-out: Rel IC50): 0.76 nM

Reference: patent US8741911B2, “Raf inhibitor compounds” (Eli Lilly and Company, priority 2012, dated 2014)
